Reference: patent US7087631B2, “Aryltetrazole compounds, and compositions thereof” (Inotek Pharmaceuticals Corporation, priority 2002, dated 2006)

Target: xanthine oxidase (Homo sapiens, UniProt P47989)
Assay: Xanthine oxidase inhibitory activity, 96 well plate, kinetic reading at 295 nm
Assay type: biochemical
[1] = compound concentration 0.1 μM, 0.1 µM
[2] = compound concentration 0.01 μM, 0.01 µM

xanthine oxidase, sequence (P47989 whole entry, species assumed): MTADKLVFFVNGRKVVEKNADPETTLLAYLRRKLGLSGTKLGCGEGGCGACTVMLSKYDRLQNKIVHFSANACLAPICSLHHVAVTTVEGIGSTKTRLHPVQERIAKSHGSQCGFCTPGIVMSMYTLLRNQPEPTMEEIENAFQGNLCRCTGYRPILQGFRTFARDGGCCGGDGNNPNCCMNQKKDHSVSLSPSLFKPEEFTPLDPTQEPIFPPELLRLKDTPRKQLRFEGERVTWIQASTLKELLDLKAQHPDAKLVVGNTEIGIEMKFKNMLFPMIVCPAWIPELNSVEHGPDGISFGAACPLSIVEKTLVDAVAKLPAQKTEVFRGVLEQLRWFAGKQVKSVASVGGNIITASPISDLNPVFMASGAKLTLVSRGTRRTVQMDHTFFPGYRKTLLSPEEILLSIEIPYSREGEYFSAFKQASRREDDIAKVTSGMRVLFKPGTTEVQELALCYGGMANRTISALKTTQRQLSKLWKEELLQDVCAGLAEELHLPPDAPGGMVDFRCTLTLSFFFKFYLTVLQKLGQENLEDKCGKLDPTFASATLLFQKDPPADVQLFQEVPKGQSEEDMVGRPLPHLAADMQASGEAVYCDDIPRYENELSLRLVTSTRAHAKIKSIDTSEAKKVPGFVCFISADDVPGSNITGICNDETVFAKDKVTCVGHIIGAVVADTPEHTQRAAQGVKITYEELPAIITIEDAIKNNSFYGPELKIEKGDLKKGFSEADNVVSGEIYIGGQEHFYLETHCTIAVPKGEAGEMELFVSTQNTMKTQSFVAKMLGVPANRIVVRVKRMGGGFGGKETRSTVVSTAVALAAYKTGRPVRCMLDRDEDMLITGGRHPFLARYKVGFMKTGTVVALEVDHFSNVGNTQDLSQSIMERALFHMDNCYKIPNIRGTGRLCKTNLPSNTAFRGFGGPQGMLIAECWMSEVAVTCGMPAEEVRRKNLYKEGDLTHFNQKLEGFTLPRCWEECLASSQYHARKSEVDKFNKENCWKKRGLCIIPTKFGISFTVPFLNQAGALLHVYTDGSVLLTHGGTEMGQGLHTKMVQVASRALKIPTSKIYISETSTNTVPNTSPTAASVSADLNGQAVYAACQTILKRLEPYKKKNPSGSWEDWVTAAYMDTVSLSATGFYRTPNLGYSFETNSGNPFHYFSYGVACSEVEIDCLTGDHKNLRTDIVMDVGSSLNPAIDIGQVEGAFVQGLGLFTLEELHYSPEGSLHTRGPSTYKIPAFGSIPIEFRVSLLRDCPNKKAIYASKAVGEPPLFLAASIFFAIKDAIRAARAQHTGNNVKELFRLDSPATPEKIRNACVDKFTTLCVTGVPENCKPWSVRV

PERCENT XANTHINE OXIDASE INHIBITION (compound concentration 100 μM) [%]	PERCENT XANTHINE OXIDASE INHIBITION (compound concentration 1 μM) [%]	PERCENT XANTHINE OXIDASE INHIBITION (compound concentration 0.1 μM) [%]	SMILES	other results
–	34	6	N#Cc1cc(-c2nnn[nH]2)ccc1C(=O)Nc1ccccc1 [JF]	–
67	–	–	Brc1ccc(-c2nnn[nH]2)cc1 [FI]	PERCENT XANTHINE OXIDASE INHIBITION (compound concentration 10 μM): 21%
–	98	95	O=C(OCc1cccnc1)c1ccc(-c2nnn[nH]2)cc1 [HO]	PERCENT XANTHINE OXIDASE INHIBITION (compound concentration 0.05 μM): 46%
–	86	47	O=C(Nc1ccc(Cl)cc1Cl)c1ccc(-c2nnn[nH]2)cc1 [IY]	PERCENT XANTHINE OXIDASE INHIBITION (compound concentration 0.03 μM): 26%
–	100	–	O=C(OCc1ccccc1I)c1ccc(-c2nnn[nH]2)cc1 [GX]	PERCENT XANTHINE OXIDASE INHIBITION [2]: 19%; PERCENT XANTHINE OXIDASE INHIBITION [1]: 84%
10	–	–	c1ccc(-c2nnn[nH]2)cc1 [FF]	–
71	–	–	COc1ccc(-c2nnn[nH]2)cc1 [FK]	PERCENT XANTHINE OXIDASE INHIBITION (compound concentration 10 μM): 30%
–	86	45	O=C(Nc1ccccc1F)c1ccc(-c2nnn[nH]2)cc1 [HY]	PERCENT XANTHINE OXIDASE INHIBITION (compound concentration 0.03 μM): 20%
–	35	10	c1ccc(COc2ccc(-c3nnn[nH]3)cc2)cc1 [IV]	–
–	64	33	CCCCOc1ccc(NC(=O)c2ccc(-c3nnn[nH]3)cc2)cc1 [IQ]	PERCENT XANTHINE OXIDASE INHIBITION (compound concentration 0.03 μM): 36%
30	–	–	Nc1ccc(-c2nnn[nH]2)cc1 [FO]	PERCENT XANTHINE OXIDASE INHIBITION (compound concentration 10 μM): 3%
–	0	–	O=C(Nc1ccccc1)c1cccc(-c2nnn[nH]2)c1 [IO]	–
–	95	68	O=C(Nc1ccc(Cl)c(Cl)c1)c1ccc(-c2nnn[nH]2)cc1 [JL]	PERCENT XANTHINE OXIDASE INHIBITION (compound concentration 0.03 μM): 34%
32	–	–	Cc1ccc(-c2nnn[nH]2)cc1 [FN]	PERCENT XANTHINE OXIDASE INHIBITION (compound concentration 10 μM): 3%
–	25	–	O=C(NCc1ccc2c(c1)OCO2)c1ccc(-c2nnn[nH]2)cc1 [HB]	–
–	9	–	O=C(Oc1cc[n+]([O-])cc1)c1ccc(-c2nnn[nH]2)cc1 [GN]	–

PERCENT XANTHINE OXIDASE INHIBITION (compound concentration 100 μM) [%]	PERCENT XANTHINE OXIDASE INHIBITION (compound concentration 1 μM) [%]	PERCENT XANTHINE OXIDASE INHIBITION (compound concentration 0.1 μM) [%]	SMILES	other results
92	9	–	CC(=O)c1ccc(-c2nnn[nH]2)cc1 [FU]	PERCENT XANTHINE OXIDASE INHIBITION (compound concentration 10 μM): 54%
100	39	–	COC(=O)c1ccc(-c2nnn[nH]2)cc1 [FW]	PERCENT XANTHINE OXIDASE INHIBITION (compound concentration 10 μM): 82%
–	56	15	O=C(Nc1ccc(-c2nnn[nH]2)cc1)c1ccccc1 [Compound IT]	PERCENT XANTHINE OXIDASE INHIBITION (compound concentration 0.03 μM): 7%
–	94	69	O=C(OCc1ccc(Br)cc1)c1ccc(-c2nnn[nH]2)cc1 [GU]	PERCENT XANTHINE OXIDASE INHIBITION (compound concentration 0.01 μM): 17%
91	11	–	O=C(O)c1ccc(-c2nnn[nH]2)cc1 [FY]	PERCENT XANTHINE OXIDASE INHIBITION (compound concentration 10 μM): 56%
–	100	100	O=C(OCc1ccc(Cl)cc1)c1ccc(-c2nnn[nH]2)cc1 [GE]	PERCENT XANTHINE OXIDASE INHIBITION (compound concentration 0.05 μM): 59%
–	86	41	N#Cc1cc(-c2nnn[nH]2)ccc1C(=O)Nc1cccnc1 [JH]	PERCENT XANTHINE OXIDASE INHIBITION (compound concentration 0.03 μM): 23%
100	88	–	CC(C)OC(=O)c1ccc(-c2nnn[nH]2)cc1 [FZ]	PERCENT XANTHINE OXIDASE INHIBITION (compound concentration 10 μM): 97%
–	0	–	Cc1cc(C(=O)Nc2ccccc2)ccc1-c1nnn[nH]1 [JK]	–
–	92	59	O=C(Nc1ccc(F)cc1)c1ccc(-c2nnn[nH]2)cc1 [Compound HX]	PERCENT XANTHINE OXIDASE INHIBITION (compound concentration 0.03 μM): 37%
70	14	–	c1cncc(-c2ccc(-c3nnn[nH]3)cc2)c1 [HI]	PERCENT XANTHINE OXIDASE INHIBITION (compound concentration 10 μM): 24%
–	0	–	CN(C(=O)c1ccc(-c2nnn[nH]2)cc1)c1ccccc1 [IM]	–
–	100	97	O=C(Oc1ccccc1)c1ccc(-c2nnn[nH]2)cc1 [GC]	PERCENT XANTHINE OXIDASE INHIBITION (compound concentration 0.05 μM): 52%
–	100	–	O=C(OCc1ccccc1I)c1ccc(-c2nnn[nH]2)cc1 [JQ]	PERCENT XANTHINE OXIDASE INHIBITION [2]: 18%; PERCENT XANTHINE OXIDASE INHIBITION [1]: 89%
69	–	–	Clc1ccc(-c2nnn[nH]2)cc1 [FH]	PERCENT XANTHINE OXIDASE INHIBITION (compound concentration 10 μM): 27%

Continued, molecule first:

SMILES	PERCENT XANTHINE OXIDASE INHIBITION (compound concentration 100 μM) [%]	PERCENT XANTHINE OXIDASE INHIBITION (compound concentration 1 μM) [%]	PERCENT XANTHINE OXIDASE INHIBITION (compound concentration 0.1 μM) [%]	other results
O=[N+]([O-])c1cc(-c2nnn[nH]2)ccc1Cl [HF]	80	–	–	–
O=C(OCCN1CCCC1)c1ccc(-c2nnn[nH]2)cc1 [GL]	–	4	–	–
O=C(OC1CCCCC1)c1ccc(-c2nnn[nH]2)cc1 [GH]	–	–	–	PERCENT XANTHINE OXIDASE INHIBITION (compound concentration 0.03 μM): 65%; PERCENT XANTHINE OXIDASE INHIBITION [1]: 91%; PERCENT XANTHINE OXIDASE INHIBITION (compound concentration 1 μM, 1 µM): 100%
CCC#CCOC(=O)c1ccc(-c2nnn[nH]2)cc1 [GQ]	–	78	35	PERCENT XANTHINE OXIDASE INHIBITION (compound concentration 0.01 μM): 0%
O=C(OCC(F)(F)C(F)F)c1ccc(-c2nnn[nH]2)cc1 [GP]	–	92	65	PERCENT XANTHINE OXIDASE INHIBITION (compound concentration 0.01 μM): 9%
O=C(O)Cc1ccc(NC(=O)c2ccc(-c3nnn[nH]3)cc2)cc1 [II]	–	90	45	PERCENT XANTHINE OXIDASE INHIBITION (compound concentration 0.03 μM): 20%
O=C(OC1CCC2CCCCC2C1)c1ccc(-c2nnn[nH]2)cc1 (stereo not shown) [GY]	–	76	11	PERCENT XANTHINE OXIDASE INHIBITION (compound concentration 0.01 μM): 19%
CC(C)(C)OC(=O)N1CCN(C(=O)c2ccc(-c3nnn[nH]3)cc2)CC1 [HK]	43	–	–	–
O=C(Nc1ccccc1)Nc1ccc(-c2nnn[nH]2)cc1 [IU]	–	42	9	PERCENT XANTHINE OXIDASE INHIBITION (compound concentration 0.03 μM): 3%
CC(C)COc1ccc(-c2nnn[nH]2)cc1C#N [Compound JE]	–	82	32	PERCENT XANTHINE OXIDASE INHIBITION (compound concentration 0.03 μM): 12%
O=C(OCC12CC3CC(CC(C3)C1)C2)c1ccc(-c2nnn[nH]2)cc1 [GI]	–	100	95	PERCENT XANTHINE OXIDASE INHIBITION (compound concentration 0.03 μM): 75%
O=C(NCc1cccnc1)c1ccc(-c2nnn[nH]2)cc1 [HC]	–	25	–	–
O=C(/C=C/c1ccccc1)Nc1nnn[nH]1 [Compound HN]	42	10	–	PERCENT XANTHINE OXIDASE INHIBITION (compound concentration 10 μM): 13%
O=C(OCC(Cl)(Cl)Cl)c1ccc(-c2nnn[nH]2)cc1 [GV]	–	95	73	PERCENT XANTHINE OXIDASE INHIBITION (compound concentration 0.01 μM): 14%
CCCCc1ccc(NC(=O)c2ccc(-c3nnn[nH]3)cc2)cc1 [IH]	–	95	63	PERCENT XANTHINE OXIDASE INHIBITION (compound concentration 0.03 μM): 33%
C=C(C)C1CC=C(COC(=O)c2ccc(-c3nnn[nH]3)cc2)CC1 (stereo not shown) [GR]	–	48	8	PERCENT XANTHINE OXIDASE INHIBITION (compound concentration 0.01 μM): 0%
CC(C)COc1ccc(-c2nn[nH]n2)cc1 [Compound IR]	–	88	47	PERCENT XANTHINE OXIDASE INHIBITION (compound concentration 0.03 μM): 28%
O=C(NC12CC3CC(CC(C3)C1)C2)c1ccc(-c2nnn[nH]2)cc1 [HT]	–	62	23	PERCENT XANTHINE OXIDASE INHIBITION (compound concentration 0.03 μM): 15%

SMILES	PERCENT XANTHINE OXIDASE INHIBITION (compound concentration 100 μM) [%]	PERCENT XANTHINE OXIDASE INHIBITION (compound concentration 1 μM) [%]	PERCENT XANTHINE OXIDASE INHIBITION (compound concentration 0.1 μM) [%]	other results
Fc1ccc(-c2nnn[nH]2)cc1Cl [Compound HE]	33	–	–	–
COc1ccc2cc(-c3nnn[nH]3)ccc2c1 [JR]	85	14	–	PERCENT XANTHINE OXIDASE INHIBITION (compound concentration 10 μM): 56%
COc1cc(-c2nnn[nH]2)ccc1OCC(C)C [JD]	–	28	0	–
CC(C)c1ccccc1NC(=O)c1ccc(-c2nnn[nH]2)cc1 [IF]	–	16	–	–
CC(C)COc1ccc(-c2nnn[nH]2)cc1Br [Compound JC]	–	31	6	–
CCCCOC(=O)c1ccc(-c2nnn[nH]2)cc1 [FX]	95	73	–	PERCENT XANTHINE OXIDASE INHIBITION (compound concentration 10 μM): 95%
O=C(OC1CCCCC1)c1ccc(-c2nnn[nH]2)cc1 [GO]	–	82	18	PERCENT XANTHINE OXIDASE INHIBITION (compound concentration 0.01 μM): 6%
Clc1cccc(-c2nnn[nH]2)c1 [FG]	34	–	–	–
O=C(OCCN1C(=O)CCC1=O)c1ccc(-c2nnn[nH]2)cc1 [GW]	–	39	9	PERCENT XANTHINE OXIDASE INHIBITION (compound concentration 0.01 μM): 5%
CC(=O)Nc1ccc(-c2nn[nH]n2)cc1 [Compound FR]	40	–	–	–
O=C(OCC(C(F)(F)F)C(F)(F)F)c1ccc(-c2nnn[nH]2)cc1 [GS]	–	95	68	PERCENT XANTHINE OXIDASE INHIBITION (compound concentration 0.01 μM): 13%
O=C(NCc1ccccc1)c1ccc(-c2nnn[nH]2)cc1 [JA]	–	–	0	–
O=S(=O)(NC1CCCCC1)c1ccc(-c2nnn[nH]2)cc1 [HV]	–	0	–	–
CCOc1ccc(-c2nnn[nH]2)cc1 [HD]	60	–	–	–
O=C(Nc1ccc(F)cc1F)c1ccc(-c2nnn[nH]2)cc1 [IZ]	–	89	52	PERCENT XANTHINE OXIDASE INHIBITION (compound concentration 0.03 μM): 23%
COc1cc(-c2nnn[nH]2)cc(OC)c1OC [HG]	22	–	–	–
O=S(=O)(NC12CC3CC(CC(C3)C1)C2)c1ccc(-c2nnn[nH]2)cc1 [HU]	–	0	–	–
